From the supplement of paper PMC12532568 come the findings set out here.

Where a name gives a salt, the structure may show the parent alone.

In the test the test system is Danio rerio larvae Tg(actc1b:ZsGreen-LC3), 3 dpf. As to the kind of experiment: LC3 puncta relative area vs vehicle (mean) (log2 fold change); higher = more autophagy. The settings on record: treatment time 16 h. As to the method: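 Transgenic ZsGreen-LC3 zebrafish larvae (2 dpf) were treated for 16 h with natural bioactives at 10, 50, 100 or 250 µM. Skeletal-muscle LC3 puncta area was measured by high-content imaging with or without 4 h of 100 mM NH4Cl, normalised to vehicle, and reported as the mean log2 fold change over 4–21 larvae.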

For `CCCCC(=O)[O-].[Na+]` [Valeric acid sodium salt], the “LC3 puncta (log2)” value runs as follows: (NH4Cl: + NH4Cl, 10 µM) -0.472; (NH4Cl: + NH4Cl, 50 µM) -0.35; (NH4Cl: + NH4Cl, 100 µM) -0.0575; (NH4Cl: + NH4Cl, 250 µM) -0.14; (NH4Cl: - NH4Cl, 10 µM) -0.132; (NH4Cl: - NH4Cl, 50 µM) 0.109. In addition, the “LC3 puncta (log2)” value is -0.272 (NH4Cl: - NH4Cl, 100 µM) and -0.191 (NH4Cl: - NH4Cl, 250 µM).

On to `O=C(O)CCSCCC(=O)O` [3,3'-thiodipropionic acid], for which the “LC3 puncta (log2)” value is 0.309 (NH4Cl: + NH4Cl, 10 µM); 0.728 (NH4Cl: + NH4Cl, 50 µM); -0.445 (NH4Cl: + NH4Cl, 100 µM); 0.629 (NH4Cl: + NH4Cl, 250 µM); 0.0135 (NH4Cl: - NH4Cl, 10 µM); 0.045 (NH4Cl: - NH4Cl, 50 µM). The “LC3 puncta (log2)” value is, setting by setting: (NH4Cl: - NH4Cl, 100 µM) -0.0204; (NH4Cl: - NH4Cl, 250 µM) -0.062.

On to `CC(O)CC(=O)O` (racemic) [DL-ß-Hydroxybutyric acid sodium salt], for which the “LC3 puncta (log2)” value (NH4Cl: + NH4Cl, 10 µM) is -0.181; the “LC3 puncta (log2)” value (NH4Cl: + NH4Cl, 50 µM) came out at 0.231; the “LC3 puncta (log2)” value (NH4Cl: + NH4Cl, 100 µM) was determined as 0.389; the “LC3 puncta (log2)” value (NH4Cl: + NH4Cl, 250 µM) was determined as 0.588; the “LC3 puncta (log2)” value (NH4Cl: - NH4Cl, 10 µM) was determined as 0.151; the “LC3 puncta (log2)” value (NH4Cl: - NH4Cl, 50 µM) was -0.288. The “LC3 puncta (log2)” value worked out at 0.0785 (NH4Cl: - NH4Cl, 100 µM) and 0.0274 (NH4Cl: - NH4Cl, 250 µM).

For `CCCCCCCC(=O)[O-].[Na+]` [Sodium octanoate], the “LC3 puncta (log2)” value reads like this: (NH4Cl: + NH4Cl, 10 µM) 0.613; (NH4Cl: + NH4Cl, 50 µM) 0.427; (NH4Cl: + NH4Cl, 100 µM) 0.342; (NH4Cl: + NH4Cl, 250 µM) 0.503; (NH4Cl: - NH4Cl, 10 µM) -0.0249; (NH4Cl: - NH4Cl, 50 µM) 0.344. Moreover, the “LC3 puncta (log2)” value stood at 0.217 (NH4Cl: - NH4Cl, 100 µM) and 0.272 (NH4Cl: - NH4Cl, 250 µM).

As for `CC(=O)CC(=O)O` [Lithium acetoacetate], the “LC3 puncta (log2)” value (NH4Cl: + NH4Cl, 10 µM) stood at 0.433; the “LC3 puncta (log2)” value (NH4Cl: + NH4Cl, 50 µM) is 0.388; the “LC3 puncta (log2)” value (NH4Cl: + NH4Cl, 100 µM) is 0.24; the “LC3 puncta (log2)” value (NH4Cl: + NH4Cl, 250 µM) stood at 0.594; the “LC3 puncta (log2)” value (NH4Cl: - NH4Cl, 10 µM) came out at 0.304; the “LC3 puncta (log2)” value (NH4Cl: - NH4Cl, 50 µM) was -0.266. Besides, the “LC3 puncta (log2)” value is -0.279 (NH4Cl: - NH4Cl, 100 µM) and 0.0398 (NH4Cl: - NH4Cl, 250 µM).

In the case of `O=C(O[C@@H]1Cc2c(O)cc(O)cc2O[C@@H]1c1ccc(O)c(O)c1)c1cc(O)c(O)c(O)c1` [(-)-Epicatechin gallate], the “LC3 puncta (log2)” value by setting is: (NH4Cl: + NH4Cl, 10 µM) 0.221; (NH4Cl: + NH4Cl, 50 µM) 0.493; (NH4Cl: + NH4Cl, 100 µM) 0.661; (NH4Cl: - NH4Cl, 10 µM) -0.0294; (NH4Cl: - NH4Cl, 50 µM) 0.253; (NH4Cl: - NH4Cl, 100 µM) 0.0524.

Take `CCCCCC=CCC=CCCCCCCCC(=O)O` [Linoaleic acid]: the “LC3 puncta (log2)” value (NH4Cl: + NH4Cl, 10 µM) is 0.722; the “LC3 puncta (log2)” value (NH4Cl: + NH4Cl, 50 µM) came out at 1.36; the “LC3 puncta (log2)” value (NH4Cl: + NH4Cl, 100 µM) is 1.01; the “LC3 puncta (log2)” value (NH4Cl: - NH4Cl, 10 µM) was determined as 0.542; the “LC3 puncta (log2)” value (NH4Cl: - NH4Cl, 50 µM) is 0.956; the “LC3 puncta (log2)” value (NH4Cl: - NH4Cl, 100 µM) amounted to 0.433.

On to `O=C(O)CCC(=O)O` [Succinic acid], for which the “LC3 puncta (log2)” value by setting is: (NH4Cl: + NH4Cl, 10 µM) 0.752; (NH4Cl: + NH4Cl, 50 µM) 0.769; (NH4Cl: + NH4Cl, 100 µM) 0.297; (NH4Cl: + NH4Cl, 250 µM) 0.806; (NH4Cl: - NH4Cl, 10 µM) 0.044; (NH4Cl: - NH4Cl, 50 µM) 0.06. Also, the “LC3 puncta (log2)” value was -0.705 (NH4Cl: - NH4Cl, 100 µM) and -0.0293 (NH4Cl: - NH4Cl, 250 µM).

`N[C@@H](CCC(=O)O)C(=O)O` [L-glutamic acid]: the “LC3 puncta (log2)” value amounted to 0.755 (NH4Cl: + NH4Cl, 10 µM); 0.239 (NH4Cl: + NH4Cl, 50 µM); 0.876 (NH4Cl: + NH4Cl, 100 µM); 0.997 (NH4Cl: + NH4Cl, 250 µM); 0.144 (NH4Cl: - NH4Cl, 10 µM); 0.165 (NH4Cl: - NH4Cl, 50 µM). For the same compound, the “LC3 puncta (log2)” value by setting is: (NH4Cl: - NH4Cl, 100 µM) 0.702; (NH4Cl: - NH4Cl, 250 µM) 0.322.

Regarding `Oc1cc(O)c2c(c1)O[C@H](c1ccc(O)c(O)c1)[C@H](O)C2` [(-)-Epicatechin], the “LC3 puncta (log2)” value was 0.954 (NH4Cl: + NH4Cl, 10 µM); 0.317 (NH4Cl: + NH4Cl, 50 µM); 0.232 (NH4Cl: + NH4Cl, 100 µM); 0.0319 (NH4Cl: + NH4Cl, 250 µM); -0.000662 (NH4Cl: - NH4Cl, 10 µM); -0.156 (NH4Cl: - NH4Cl, 50 µM). Also, the “LC3 puncta (log2)” value is, setting by setting: (NH4Cl: - NH4Cl, 100 µM) -0.539; (NH4Cl: - NH4Cl, 250 µM) -0.492.
